Experimental data as given in PubChem BioAssay (NCI).
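Test compounds were applied to cells in 96-well plates for 48 hours at 5 doses. Definition used: TGI = concentration required for complete inhibition of growth.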

What was measured:
Test in all cases: growth of human tumour cells (NCI), 48 h
786-0 renal = test system: 786-0 renal
A498 renal = test system: A498 renal
A549 NSCLC = test system: A549 NSCLC
ACHN renal = test system: ACHN renal
BT-549 breast = test system: BT-549 breast
CAKI-1 renal = test system: CAKI-1 renal
EKVX NSCLC = test system: EKVX NSCLC
HCT-116 colon = test system: HCT-116 colon
HCT-15 colon = test system: HCT-15 colon
HL-60(TB) leukemia = test system: HL-60(TB) leukemia
HOP-62 NSCLC = test system: HOP-62 NSCLC
HOP-92 NSCLC = test system: HOP-92 NSCLC
HS 578T breast = test system: HS 578T breast
HT29 colon = test system: HT29 colon
IGROV1 ovarian = test system: IGROV1 ovarian
K-562 leukemia = test system: K-562 leukemia
KM12 colon = test system: KM12 colon
LOX IMVI melanoma = test system: LOX IMVI melanoma
M14 melanoma = test system: M14 melanoma
MALME-3M melanoma = test system: MALME-3M melanoma
MDA-MB-231 breast = test system: MDA-MB-231 breast
MDA-MB-435 = test system: MDA-MB-435
MDA-N = test system: MDA-N
MOLT-4 leukemia = test system: MOLT-4 leukemia
NCI-H226 lung = test system: NCI-H226 lung
NCI-H23 lung = test system: NCI-H23 lung
NCI-H460 lung = test system: NCI-H460 lung
NCI-H522 lung = test system: NCI-H522 lung
NCI/ADR-RES ovarian = test system: NCI/ADR-RES ovarian
OVCAR-3 ovarian = test system: OVCAR-3 ovarian
OVCAR-4 ovarian = test system: OVCAR-4 ovarian
OVCAR-5 ovarian = test system: OVCAR-5 ovarian
OVCAR-8 ovarian = test system: OVCAR-8 ovarian
PC-3 prostate = test system: PC-3 prostate
RXF 393 renal = test system: RXF 393 renal
SF-268 CNS = test system: SF-268 CNS
SF-295 CNS = test system: SF-295 CNS
SK-MEL-2 melanoma = test system: SK-MEL-2 melanoma
SK-MEL-28 melanoma = test system: SK-MEL-28 melanoma
SK-MEL-5 melanoma = test system: SK-MEL-5 melanoma
SN12C renal = test system: SN12C renal
SNB-19 CNS = test system: SNB-19 CNS
SR leukemia = test system: SR leukemia
SW-620 colon = test system: SW-620 colon
T-47D breast = test system: T-47D breast
TK-10 renal = test system: TK-10 renal
U251 CNS = test system: U251 CNS
UACC-257 melanoma = test system: UACC-257 melanoma
UACC-62 melanoma = test system: UACC-62 melanoma
UO-31 renal = test system: UO-31 renal

In the case of `c1ccc2c(c1)nnn2CN1CCOCC1`, the TGI (786-0 renal) is reported as > 100 µM, the TGI (A498 renal) is reported as > 100 µM and the TGI (A549 NSCLC) is reported as > 100 µM. For the same molecule, the TGI (ACHN renal) was > 100 µM, the TGI (BT-549 breast) was > 100 µM and the TGI (CAKI-1 renal) was > 100 µM. The TGI (EKVX NSCLC) was > 100 µM, the TGI (HCT-116 colon) was > 100 µM and the TGI (HCT-15 colon) was > 100 µM. For the same molecule, the TGI (HL-60(TB) leukemia) was 63.6 µM, the TGI (HOP-62 NSCLC) was > 100 µM and the TGI (HOP-92 NSCLC) was > 100 µM. The TGI (HS 578T breast) was > 100 µM, the TGI (HT29 colon) was > 100 µM and the TGI (IGROV1 ovarian) was > 100 µM. The TGI (K-562 leukemia) was > 100 µM, the TGI (KM12 colon) was > 100 µM and the TGI (LOX IMVI melanoma) was > 100 µM. For the same molecule, the TGI (M14 melanoma) was > 100 µM, the TGI (MALME-3M melanoma) was > 100 µM and the TGI (MDA-MB-231 breast) was > 100 µM. The TGI (MDA-MB-435) was > 100 µM, the TGI (MDA-N) was > 100 µM and the TGI (MOLT-4 leukemia) was > 100 µM. The TGI (NCI-H226 lung) was > 100 µM, the TGI (NCI-H23 lung) was > 100 µM and the TGI (NCI-H460 lung) was > 100 µM. The TGI (NCI-H522 lung) was > 100 µM, the TGI (NCI/ADR-RES ovarian) was > 100 µM and the TGI (OVCAR-3 ovarian) was 93.1 µM. For the same molecule, the TGI (OVCAR-4 ovarian) was > 100 µM, the TGI (OVCAR-5 ovarian) was > 100 µM and the TGI (OVCAR-8 ovarian) was > 100 µM. The TGI (PC-3 prostate) was > 100 µM, the TGI (RXF 393 renal) was > 100 µM and the TGI (SF-268 CNS) was > 100 µM. For the same molecule, the TGI (SF-295 CNS) was > 100 µM, the TGI (SK-MEL-2 melanoma) was > 100 µM and the TGI (SK-MEL-28 melanoma) was > 100 µM. For the same molecule, the TGI (SK-MEL-5 melanoma) was > 100 µM, the TGI (SN12C renal) was > 100 µM and the TGI (SNB-19 CNS) was > 100 µM. The TGI (SR leukemia) was 54.8 µM, the TGI (SW-620 colon) was > 100 µM and the TGI (T-47D breast) was > 100 µM. For the same molecule, the TGI (TK-10 renal) was > 100 µM, the TGI (U251 CNS) was > 100 µM and the TGI (UACC-257 melanoma) was > 100 µM. For the same molecule, the TGI (UACC-62 melanoma) was > 100 µM and the TGI (UO-31 renal) was > 100 µM.
